# PubChem BioAssay AID1918998 (Molecular Pharmacology Branch, DTP, NCI, 2023)
# Tested on: 521955-158-R2-J5-PDC complex spheroid growth
# Experiment: Anticancer human tumor 521955-158-R2-J5-PDC patient-derived pancreatic carcinoma cell line growth inhibition [AhR]
# Conditions: for IC50: curve of first compound; for viability, T/C: stronger effect = lower value
# Summary of the method: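 Complex tumor spheroids co-cultured with HUVEC and human MSC stroma; AhR antagonists tested in combination with standard-of-care and investigational agents. Top concentration at or near clinical Cmax (else 10 microM), half-log dilutions; growth expressed as percent test/control.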
# [1] = second compound 0.1 µM, first compound 0.000949 µM
# [2] = second compound 0.1 µM, first compound 0.003 µM
# [3] = second compound 0.1 µM, first compound 0.00949 µM
# [4] = second compound 0.1 µM, first compound 0.03 µM
# [5] = second compound 0.1 µM, first compound 0.0949 µM
# [6] = second compound 0.1 µM, first compound 0.3 µM
# [7] = second compound 0.316 µM, first compound 0.000949 µM
# [8] = second compound 0.316 µM, first compound 0.003 µM
# [9] = second compound 0.316 µM, first compound 0.00949 µM
# [10] = second compound 0.316 µM, first compound 0.03 µM
# [11] = second compound 0.316 µM, first compound 0.0949 µM
# [12] = second compound 0.316 µM, first compound 0.3 µM
# [13] = second compound 1 µM, first compound 0.000949 µM
# [14] = second compound 1 µM, first compound 0.003 µM
# [15] = second compound 1 µM, first compound 0.00949 µM
# [16] = second compound 1 µM, first compound 0.03 µM
# [17] = second compound 1 µM, first compound 0.0949 µM
# [18] = second compound 1 µM, first compound 0.3 µM
# [19] = second compound 3.16 µM, first compound 0.000949 µM
# [20] = second compound 3.16 µM, first compound 0.003 µM
# [21] = second compound 3.16 µM, first compound 0.00949 µM
# [22] = second compound 3.16 µM, first compound 0.03 µM
# [23] = second compound 3.16 µM, first compound 0.0949 µM
# [24] = second compound 3.16 µM, first compound 0.3 µM
# [25] = second compound 10 µM, first compound 0.000949 µM
# [26] = second compound 10 µM, first compound 0.003 µM
# [27] = second compound 10 µM, first compound 0.00949 µM
# [28] = second compound 10 µM, first compound 0.03 µM
# [29] = second compound 10 µM, first compound 0.0949 µM
# [30] = second compound 10 µM, first compound 0.3 µM
# [31] = second compound 0.1 µM, first compound 0.0316 µM
# [32] = second compound 0.1 µM, first compound 0.1 µM
# [33] = second compound 0.1 µM, first compound 0.316 µM
# [34] = second compound 0.1 µM, first compound 1 µM
# [35] = second compound 0.1 µM, first compound 3.16 µM
# [36] = second compound 0.1 µM, first compound 10 µM
# [37] = second compound 0.316 µM, first compound 0.0316 µM
# [38] = second compound 0.316 µM, first compound 0.1 µM
# [39] = second compound 0.316 µM, first compound 0.316 µM
# [40] = second compound 0.316 µM, first compound 1 µM
# [41] = second compound 0.316 µM, first compound 3.16 µM
# [42] = second compound 0.316 µM, first compound 10 µM
# [43] = second compound 1 µM, first compound 0.0316 µM
# [44] = second compound 1 µM, first compound 0.1 µM
# [45] = second compound 1 µM, first compound 0.316 µM
# [46] = second compound 1 µM, first compound 1 µM
# [47] = second compound 1 µM, first compound 3.16 µM
# [48] = second compound 1 µM, first compound 10 µM
# [49] = second compound 3.16 µM, first compound 0.0316 µM
# [50] = second compound 3.16 µM, first compound 0.1 µM
# [51] = second compound 3.16 µM, first compound 0.316 µM
# [52] = second compound 3.16 µM, first compound 1 µM
# [53] = second compound 3.16 µM, first compound 3.16 µM
# [54] = second compound 3.16 µM, first compound 10 µM
# [55] = second compound 10 µM, first compound 0.0316 µM
# [56] = second compound 10 µM, first compound 0.1 µM
# [57] = second compound 10 µM, first compound 0.316 µM
# [58] = second compound 10 µM, first compound 1 µM
# [59] = second compound 10 µM, first compound 3.16 µM
# [60] = second compound 10 µM, first compound 10 µM
# 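Wherever viability, T/C is given: spheroids mix tumor cells with HUVEC endothelium and human MSC stroma; luminescence taken as viability surrogate after a week of drug exposure.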
smiles,measurement,setting,value
CC(C)CC(NC(=O)C(Cc1ccccc1)NC(=O)c1cnccn1)B(O)O (stereo not given) + Cc1cncc(-c2nc(NCCc3c[nH]c4ccccc34)c3ncn(C(C)C)c3n2)c1,IC50,second compound 0.1 µM,16.5 nM
same,IC50,second compound 0.316 µM,16.7 nM
same,IC50,second compound 1 µM,16.8 nM
same,IC50,second compound 3.16 µM,15.1 nM
same,IC50,second compound 10 µM,6.44 nM
same,"viability, T/C",[1],103%
same,"viability, T/C",[2],103%
same,"viability, T/C",[3],91.8%
same,"viability, T/C",[4],4.93%
same,"viability, T/C",[5],0.17%
same,"viability, T/C",[6],0.27%
same,"viability, T/C",[7],118%
same,"viability, T/C",[8],92.1%
same,"viability, T/C",[9],97.5%
same,"viability, T/C",[10],0.39%
same,"viability, T/C",[11],0.25%
same,"viability, T/C",[12],0.21%
same,"viability, T/C",[13],107%
same,"viability, T/C",[14],128%
same,"viability, T/C",[15],98.2%
same,"viability, T/C",[16],1.49%
same,"viability, T/C",[17],2.14%
same,"viability, T/C",[18],0.89%
same,"viability, T/C",[19],141%
same,"viability, T/C",[20],127%
same,"viability, T/C",[21],81.7%
same,"viability, T/C",[22],0.28%
same,"viability, T/C",[23],2.97%
same,"viability, T/C",[24],2.29%
same,"viability, T/C",[25],144%
same,"viability, T/C",[26],126%
same,"viability, T/C",[27],11.6%
same,"viability, T/C",[28],0.28%
same,"viability, T/C",[29],2.54%
same,"viability, T/C",[30],0.26%
CCc1c2c(nc3ccc(O)cc13)-c1cc3c(c(=O)n1C2)COC(=O)[C@]3(O)CC + Cc1cncc(-c2nc(NCCc3c[nH]c4ccccc34)c3ncn(C(C)C)c3n2)c1,IC50,second compound 0.1 µM,4.04 nM
same,IC50,second compound 0.316 µM,3.98 nM
same,IC50,second compound 1 µM,4.17 nM
same,IC50,second compound 3.16 µM,4.21 nM
same,IC50,second compound 10 µM,3 nM
same,"viability, T/C",[1],78.5%
same,"viability, T/C",[2],58.6%
same,"viability, T/C",[3],25.2%
same,"viability, T/C",[4],16.5%
same,"viability, T/C",[5],14.9%
same,"viability, T/C",[6],12.5%
same,"viability, T/C",[7],70.1%
same,"viability, T/C",[8],57.8%
same,"viability, T/C",[9],26.5%
same,"viability, T/C",[10],18%
same,"viability, T/C",[11],12.4%
same,"viability, T/C",[12],12.3%
same,"viability, T/C",[13],90.1%
same,"viability, T/C",[14],60%
same,"viability, T/C",[15],24.5%
same,"viability, T/C",[16],21%
same,"viability, T/C",[17],16.4%
same,"viability, T/C",[18],15.2%
same,"viability, T/C",[19],70.4%
same,"viability, T/C",[20],58.7%
same,"viability, T/C",[21],29.7%
same,"viability, T/C",[22],18.2%
same,"viability, T/C",[23],16.7%
same,"viability, T/C",[24],10.5%
same,"viability, T/C",[25],98.9%
same,"viability, T/C",[26],49.8%
same,"viability, T/C",[27],24.1%
same,"viability, T/C",[28],15.3%
same,"viability, T/C",[29],8.29%
same,"viability, T/C",[30],4.78%
Nc1ccccc1NC(=O)c1ccc(CNC(=O)OCc2cccnc2)cc1 + Cc1cncc(-c2nc(NCCc3c[nH]c4ccccc34)c3ncn(C(C)C)c3n2)c1,IC50,second compound 0.1 µM,5510 nM
same,IC50,second compound 0.316 µM,6110 nM
same,IC50,second compound 1 µM,5740 nM
same,IC50,second compound 3.16 µM,5350 nM
same,IC50,second compound 10 µM,1020 nM
same,"viability, T/C",[31],108%
same,"viability, T/C",[32],106%
same,"viability, T/C",[33],125%
same,"viability, T/C",[34],94.7%
same,"viability, T/C",[35],68.4%
same,"viability, T/C",[36],31.5%
same,"viability, T/C",[37],117%
same,"viability, T/C",[38],134%
same,"viability, T/C",[39],126%
same,"viability, T/C",[40],103%
same,"viability, T/C",[41],77.7%
same,"viability, T/C",[42],30.4%
same,"viability, T/C",[43],133%
same,"viability, T/C",[44],139%
same,"viability, T/C",[45],155%
same,"viability, T/C",[46],108%
same,"viability, T/C",[47],73.4%
same,"viability, T/C",[48],30.5%
same,"viability, T/C",[49],138%
same,"viability, T/C",[50],143%
same,"viability, T/C",[51],135%
same,"viability, T/C",[52],110%
same,"viability, T/C",[53],69.9%
same,"viability, T/C",[54],27.2%
same,"viability, T/C",[55],135%
same,"viability, T/C",[56],125%
same,"viability, T/C",[57],101%
same,"viability, T/C",[58],48.8%
same,"viability, T/C",[59],17.7%
same,"viability, T/C",[60],2.9%
O=C(c1cc(Cc2n[nH]c(=O)c3ccccc23)ccc1F)N1CCN(C(=O)C2CC2)CC1 + Cc1cncc(-c2nc(NCCc3c[nH]c4ccccc34)c3ncn(C(C)C)c3n2)c1,IC50,second compound 0.1 µM,> 10000 nM
same,IC50,second compound 0.316 µM,> 10000 nM
same,IC50,second compound 1 µM,> 10000 nM
same,IC50,second compound 3.16 µM,> 10000 nM
same,IC50,second compound 10 µM,> 10000 nM
same,"viability, T/C",[31],106%
same,"viability, T/C",[32],97.8%
same,"viability, T/C",[33],113%
same,"viability, T/C",[34],106%
same,"viability, T/C",[35],98%
same,"viability, T/C",[36],92.4%
same,"viability, T/C",[37],101%
same,"viability, T/C",[38],114%
same,"viability, T/C",[39],109%
same,"viability, T/C",[40],102%
same,"viability, T/C",[41],86.9%
same,"viability, T/C",[42],99.5%
same,"viability, T/C",[43],119%
same,"viability, T/C",[44],116%
same,"viability, T/C",[45],115%
same,"viability, T/C",[46],99.4%
same,"viability, T/C",[47],104%
same,"viability, T/C",[48],89.2%
same,"viability, T/C",[49],142%
same,"viability, T/C",[50],133%
same,"viability, T/C",[51],121%
same,"viability, T/C",[52],135%
same,"viability, T/C",[53],115%
same,"viability, T/C",[54],126%
same,"viability, T/C",[55],139%
same,"viability, T/C",[56],156%
same,"viability, T/C",[57],167%
same,"viability, T/C",[58],117%
same,"viability, T/C",[59],114%
same,"viability, T/C",[60],123%
